Measurements reported in patent US9504747B2, “Lipids and lipid compositions for the delivery of active agents” (Novartis AG, priority 2013, dated 2016).
Blank lines part the entries; values can stand above or below the compound they belong to.

How the values were obtained:
[1] = system: respiratory syncytial virus F protein; assay: Immunization studies: anti-RSV-F titers after liposome-delivered vA317 self-replicating RNA; type: in vivo; settings: BALB/c mice, Course A = days 0 & 21, liposomes with 0.1 μg vA317 replicon (naked control 1 μg); for anti-RSV-F titer 2wp1 pool 1 / anti-RSV-F titer 2wp1 pool 2: 2 weeks after first dose; for anti-RSV-F titer 2wp2 pool 1 / anti-RSV-F titer 2wp2 pool 2: 2 weeks after second dose; for anti-RSV-F titer 4wp2 pool 1 / anti-RSV-F titer 4wp2 pool 2: 4 weeks after second dose
Description: BALB/c were immunized with liposomes comprising DSPC, cholesterol, and various lipids of the invention (or, for comparison, the cationic lipid 1,2-dilinoleyloxy-N,N-dimethyl-3-aminopropane or ‘DLinDMA’). The liposomes encapsulated 0.1 μg of “vA317” self-replicating RNA replicon which encodes respiratory syncytial virus F protein (see WO2012/031043). […] Doses were given either on days 0 & 21 or days 0 & 42. Immune responses were assessed 2 weeks after each dose (2wp1, 2wp2), and in some cases also at 4 weeks after the second dose (4wp2). Four series of experiments were performed, each with its own naked control.

[2] = pKa measurement of the cationic lipid (TNS fluorescence vs pH); type: physicochemical; settings: probe TNS (fluorescent probe), Table 4; pKa of the cationic lipid of formula (I)
Description: Unless indicated otherwise, all pKa's referred to herein were measured at standard temperature and pressure. Also, unless otherwise indicated, all references to pKa are references to pKa measured using the following technique. 2 mM solution of lipid in ethanol was prepared by weighing the lipid and then dissolving it in ethanol. 0.3 mM solution of fluorescent probe TNS in ethanol:methanol 9:1 was prepared by first making 3 mM solution of TNS in methanol and then diluting to 0.3 mM with ethanol. An aqueous buffer containing 200 mM sodium phosphate dibasic and 100 mM citric acid was prepared. […] Using the Hamilton Microlab Star high throughput liquid handler and Hamilton run control software Software, 7.5 uL of probe/lipid mix were added to 242.5 uL of buffer in a 1 mL 96 well plate (model NUNC 260252, […] Nunc International). This was done with all twelve buffers. After mixing in 1 mL 96 well plate, 100 uL of each probe/lipid/buffer mixture was transferred to a 250 uL black with clear bottom 96 well plate (model COSTAR 3904, Corning). The fluorescence measurements are carried out on the SpectraMax M5 spectrophotometer using software SoftMax pro 5.2 and following parameters: After the measurement, the background fluorescence value of an empty well on the 96 well plate was subtracted from each probe/lipid/buffer mixture. The fluorescence intensity values were then normalized to the value at lowest pH. The normalized fluorescence intensity vs. pH chart was then plotted in the Microsoft Excel software. The twelve points were connected with a smooth line. The point on the line at which the normalized fluorescence intensity was equal to 0.5 was found. […] The pKa determined using this method is precise to about 0.1 pKa units.

[3] = Polydispersity index (PDI) of the lipid nanoparticle (dynamic light scattering); type: physicochemical; settings: Table 4; FVII siRNA LNP; Chol/DSPC/stealth lipid S010, 45/44/9/2
Source text: The lipid nanoparticles (LNPs) were formed by mixing equal volumes of lipids dissolved in alcohol with siRNA dissolved in a citrate buffer by an impinging jet process. […] The siRNA to total lipid ratio is approximately 0.05 (wt/wt). Where a LNP formulation contains four lipid components, the molar ratios correspond to the type of lipid as it appears in the first four columns of the table, in the order that they appear. The ratio of the lipids ranges from 20 to 70 mole percent for the cationic lipid with a target of 40-60, the mole percent of helper lipid ranges from 20 to 70 with a target of 30 to 50, the mole percent of neutral lipid ranges from 0-30, the mole percent of PEG lipid has a range from 1 to 6 with a target of 2 to 5. The concentration of siRNA solution ranges from 0.7 to 1.0 mg/mL with a target of 0.8 to 0.9 mg/mL in a sodium citrate: sodium chloride buffer pH 4-6, with a target of 4.5-5.5. The LNPs are formed by mixing equal volumes of lipid solution in ethanol with siRNA dissolved in a citrate buffer by an impinging jet process through a mixing device with ID ranging from 0.25 to 2.0 mm at a flow rate from 10 to 640 mL/min. The mixed LNP solution is held at room temperature for 0-24 hrs prior to a dilution step. […] The final product is sterile filtered and stored at 4° C. Unless indicated otherwise, all PDIs referred to herein are the PDI of the fully formed nanoparticle, as measured by dynamic light scattering on a Malvern Zetasizer. The nanoparticle sample was diluted in phosphate buffered saline (PBS) so that the count rate was approximately 200-400 kcts. The data is presented in Tables 4 and 5 as a weighted average of the intensity measure.

Structure (SMILES): CCCCC/C=C\C/C=C\CCCCCCCCOc1cc(COC(=O)OCCCN(C)C)cc(OCCCCCCCC/C=C\C/C=C\CCCCC)c1 [Example 68]
- anti-RSV-F titer 2wp1 pool 1 [1]: 1031
- anti-RSV-F titer 2wp1 pool 2 [1]: 494
- anti-RSV-F titer 2wp2 pool 1 [1]: 11315
- anti-RSV-F titer 2wp2 pool 2 [1]: 7800
- anti-RSV-F titer 4wp2 pool 1 [1]: 12963
- anti-RSV-F titer 4wp2 pool 2 [1]: 17734

Structure (SMILES): CCCCC/C=C\C/C=C\CCCCCCCC(=O)OCc1cc(COC(=O)CCCCCCC/C=C\C/C=C\CCCCC)cc(COC(=O)OCCN(C)C)c1 [Example 70]
- anti-RSV-F titer 2wp1 pool 1 [1]: 1416
- anti-RSV-F titer 2wp1 pool 2 [1]: 3110
- anti-RSV-F titer 2wp2 pool 1 [1]: 31550
- anti-RSV-F titer 2wp2 pool 2 [1]: 20124
- anti-RSV-F titer 4wp2 pool 1 [1]: 18779
- anti-RSV-F titer 4wp2 pool 2 [1]: 18358

Structure (SMILES): CCCCC/C=C\C/C=C\CCCCCCCCOC(=O)CCC(=O)OCc1cc(COC(=O)CCC(=O)OCCCCCCCC/C=C\C/C=C\CCCCC)cc(CN(C)C)c1 [Example 77]
- pKa [2]: 6.09
- PDI [3]: 0.014

Structure (SMILES): CCCCCCCC(=O)OCCCCCCCCCCOC(=O)CCC(=O)OCc1cc(COC(=O)CCC(=O)OCCCCCCCCCCOC(=O)CCCCCCC)cc(CN(C)C)c1 [Example 78]
- pKa [2]: 6.02
- PDI [3]: 0.043

Structure (SMILES): CCCCCCCCCOC(=O)CCCCCCC(=O)OCc1cc(COC(=O)CCCCCCC(=O)OCCCCCCCCC)cc(CN(C)C)c1 [Example 79]
- pKa [2]: 6.48

Structure (SMILES): CCCCC/C=C\C/C=C\CCCCCCCCOc1cc(CCCOC(=O)CCN(C)C)cc(OCCCCCCCC/C=C\C/C=C\CCCCC)c1 [Example 81]
- anti-RSV-F titer 2wp1 pool 1 [1]: 1779
- anti-RSV-F titer 2wp1 pool 2 [1]: 1553
- anti-RSV-F titer 2wp2 pool 1 [1]: 24648
- anti-RSV-F titer 2wp2 pool 2 [1]: 15304
- anti-RSV-F titer 4wp2 pool 1 [1]: 41921
- anti-RSV-F titer 4wp2 pool 2 [1]: 34684

Structure (SMILES): CCCCCCCCCC(=O)OCCCCCCCC(=O)OCc1cc(COC(=O)CCCCCCCOC(=O)CCCCCCCCC)cc(CN(C)C)c1 [Example 83]
- pKa [2]: 6.15
- PDI [3]: 0.005

Structure (SMILES): CCCCCCCC(=O)OCCCCCC(=O)OCc1cc(COC(=O)CCCCCOC(=O)CCCCCCC)cc(CN(C)C)c1 [Example 85]
- pKa [2]: 5.72

The remaining lines, values ahead:

- pKa [2]: 6.02
- PDI [3]: 0.076
Structure (SMILES): CCCCC/C=C\C/C=C\CCCCCCCCOC(=O)CCCCOc1cc(CN(C)C)cc(OCCCCC(=O)OCCCCCCCC/C=C\C/C=C\CCCCC)c1 [Example 89]

- pKa [2]: 5.81
Structure (SMILES): CCCCCCCCCCCCOC(=O)CCCCCOc1cc(CN(C)C)cc(OCCCCCC(=O)OCCCCCCCCCCCC)c1 [Example 90]

- pKa [2]: 5.82
Structure (SMILES): CCCCC/C=C\C/C=C\CCCCCCCC(=O)OCCCOc1cc(CN(C)C)cc(OCCCOC(=O)CC(CCCCCCCC)CCCCCCCC)c1 [Example 97]

- pKa [2]: 5.94
- PDI [3]: 0.096
Structure (SMILES): CCCCCCCCOC(=O)CCCCCCCC(=O)OCCCOc1cc(CN(C)C)cc(OCCCOC(=O)CCCCCCCC(=O)OCCCCCCCC)c1 [Example 98]

- pKa [2]: 6.32
Structure (SMILES): CCCCCCCCC(CCCCCCCC)CC(=O)OCc1cc(COC(=O)CCCCCCCOC(=O)CCCCCCC)cc(CN(C)C)c1 [Example 101]

- pKa [2]: 6.02
Structure (SMILES): CCCCC/C=C\C/C=C\CCCCCCCCOc1cc(CN(C)C)cc(OCCCCOC(=O)CCC(COC(=O)CCCCC)COC(=O)CCCCC)c1C [Example 104]
